Data published in patent US20210261561A1, “BICYCLIC HETEROCYCLE DERIVATIVES HAVING SELECTIVE BACE1 INHIBITORY ACTIVITY” (SHIONOGI & CO., LTD., priority 2018, published 2021).

Test system: Abeta 1-37, Abeta 1-38, Abeta 1-40 and Abeta 1-42 in cerebrospinal fluid (CSF)
Experiment: Pharmacology in the beagle dog, beta-amyloid profile in CSF (Test Example 18-2)
Format: in vivo
Settings: for % Decrease in Abeta 1-42 at 24 h^(a) or 25 h^(b) post dosing compared to own baseline: 24 h or 25 h
Description: Test compounds were tested to evaluate the effect on the beta-amyloid profile in cerebrospinal fluid (CSF) of dogs after a single dose, in combination with pharmacokinetic (PK) follow up and limited safety evaluation.
For each of compound II-6 or II-10, four beagle dogs (2 males, 2 females) were dosed with vehicle (1 mL/kg of an aqueous solution of 20% cyclodextrin) and 12 beagle dogs (2 males and 2 females per dosage group) were dosed with test compounds as follows:
In the case of compounds II-2, II-3 and II-18, two beagle dogs (1 male, 1 female) were dosed with vehicle (1 mL/kg of an aqueous solution of 20% cyclodextrin) and 4 beagle dogs (2 males and 2 females) were dosed with test compound (II-2, II-3, or II-18) at the doses indicated in the following Table in an aqueous 20% cyclodextrin solution with a concentration in mg/mL identical to the dose given in mg/kg) on an empty stomach.
CSF was taken in conscious animals directly from the lateral ventricle via a cannula which was screwed in the skull and covered with subcutaneous tissue and skin, before and at 4, 8, 25 and 49 hours after dosing. Eight hours after dosing the animals got access to their regular meal for 30 minutes. Blood was taken for PK follow up (0.5, 1, 2, 4, 8, 25 and 49 hours) and serum samples for biochemistry were taken before and at 8 and 25 h after dosing. The CSF samples were used for measurement of Abeta 1-37, Abeta 1-38, Abeta 1-40 and Abeta 1-42.

Structure (SMILES): C[C@@]1(S(C)(=O)=O)CC[C@@](CF)(c2cc(NC(=O)c3cc4c(cn3)OC(F)(F)O4)ccc2F)N=C1N [II-6]
- % Decrease in Abeta 1-42 at 8 h post dosing compared to own baseline (single dose 0.16 mg/kg): 51%
- % Decrease in Abeta 1-42 at 24 h^(a) or 25 h^(b) post dosing compared to own baseline (single dose 0.16 mg/kg): 31%
- % Decrease in Abeta 1-42 at 8 h post dosing compared to own baseline (single dose 0.31 mg/kg): 69%
- % Decrease in Abeta 1-42 at 49 h post dosing compared to own baseline (single dose 0.31 mg/kg): 22%
- % Decrease in Abeta 1-42 at 8 h post dosing compared to own baseline (single dose 0.63 mg/kg): 68%
- % Decrease in Abeta 1-42 at 24 h^(a) or 25 h^(b) post dosing compared to own baseline (single dose 0.63 mg/kg): 62%

Structure (SMILES): [2H]C1([2H])Oc2cnc(C(=O)Nc3ccc(F)c([C@]4(CF)CC[C@@](C)(S(C)(=O)=O)C(N)=N4)c3)cc2OC1([2H])[2H] [II-2]
- % Decrease in Abeta 1-42 at 8 h post dosing compared to own baseline (single dose 0.63 mg/kg): 33%

Structure (SMILES): [2H]C1([2H])Oc2cnc(C(=O)Nc3ccc(F)c([C@]4(CF)CC[C@@](C)(S(C)(=O)=O)C(N)=N4)c3)cc2OC1([2H])[2H] [II-3]
- % Decrease in Abeta 1-42 at 8 h post dosing compared to own baseline (single dose 5 mg/kg): 61%

Structure (SMILES): CCS(=O)(=O)[C@]1(C)CC[C@@](CF)(c2cc(NC(=O)c3cc4c(cn3)OC(F)(F)O4)ccc2F)N=C1N [II-20]
- % Decrease in Abeta 1-42 at 8 h post dosing compared to own baseline (single dose 0.16 mg/kg): 51%
- % Decrease in Abeta 1-42 at 24 h^(a) or 25 h^(b) post dosing compared to own baseline (single dose 0.16 mg/kg): 30%
- % Decrease in Abeta 1-42 at 49 h post dosing compared to own baseline (single dose 0.16 mg/kg): 25%
- % Decrease in Abeta 1-42 at 8 h post dosing compared to own baseline (single dose 0.63 mg/kg): 72%
- % Decrease in Abeta 1-42 at 24 h^(a) or 25 h^(b) post dosing compared to own baseline (single dose 0.63 mg/kg): 70%
- % Decrease in Abeta 1-42 at 49 h post dosing compared to own baseline (single dose 0.63 mg/kg): 52%
- % Decrease in Abeta 1-42 at 8 h post dosing compared to own baseline (single dose 1 mg/kg): 73%
- % Decrease in Abeta 1-42 at 24 h^(a) or 25 h^(b) post dosing compared to own baseline (single dose 1 mg/kg): 76%
- % Decrease in Abeta 1-42 at 49 h post dosing compared to own baseline (single dose 1 mg/kg): 58%
- % Decrease in Abeta 1-42 at 8 h post dosing compared to own baseline (single dose 3.75 mg/kg): 86%
- % Decrease in Abeta 1-42 at 24 h^(a) or 25 h^(b) post dosing compared to own baseline (single dose 3.75 mg/kg): 91%
- % Decrease in Abeta 1-42 at 49 h post dosing compared to own baseline (single dose 3.75 mg/kg): 85%

Structure (SMILES): C[C@@]1(S(C)(=O)=O)CC[C@@](CF)(c2cc(NC(=O)c3cc4c(cn3)OC(F)(F)CO4)ccc2F)N=C1N [II-10]
- % Decrease in Abeta 1-42 at 8 h post dosing compared to own baseline (single dose 0.16 mg/kg): 37%
- % Decrease in Abeta 1-42 at 8 h post dosing compared to own baseline (single dose 0.63 mg/kg): 68%
- % Decrease in Abeta 1-42 at 24 h^(a) or 25 h^(b) post dosing compared to own baseline (single dose 0.63 mg/kg): 21%
- % Decrease in Abeta 1-42 at 8 h post dosing compared to own baseline (single dose 1.25 mg/kg): 73%
- % Decrease in Abeta 1-42 at 24 h^(a) or 25 h^(b) post dosing compared to own baseline (single dose 1.25 mg/kg): 27%
- % Decrease in Abeta 1-42 at 8 h post dosing compared to own baseline (single dose 2.5 mg/kg): 76%
- % Decrease in Abeta 1-42 at 24 h^(a) or 25 h^(b) post dosing compared to own baseline (single dose 2.5 mg/kg): 28%
